Laboratory results reported in PMC10495984, “Structural basis of IRGB10 oligomerization by GTP hydrolysis” (Frontiers in Immunology, 2023).

Columns and labels:
IRGB10 = molecular target: T1, IRGB10 (Mus musculus, UniProt U5NFV2); experiment: turbidity at […] nm, SEC and native PAGE of GTP-driven oligomerization; type: biochemical; conditions: nucleotide-free protein, MgCl2, 37 °C, pH 8.0; hydrolysis inferred from oligomerization
T1 construct: recombinant from E. coli BL21(DE3), Ni-NTA purified, C-terminal LEH from plasmid kept; modelled residues 16-406
T1 sequence (U5NFV2 1-406): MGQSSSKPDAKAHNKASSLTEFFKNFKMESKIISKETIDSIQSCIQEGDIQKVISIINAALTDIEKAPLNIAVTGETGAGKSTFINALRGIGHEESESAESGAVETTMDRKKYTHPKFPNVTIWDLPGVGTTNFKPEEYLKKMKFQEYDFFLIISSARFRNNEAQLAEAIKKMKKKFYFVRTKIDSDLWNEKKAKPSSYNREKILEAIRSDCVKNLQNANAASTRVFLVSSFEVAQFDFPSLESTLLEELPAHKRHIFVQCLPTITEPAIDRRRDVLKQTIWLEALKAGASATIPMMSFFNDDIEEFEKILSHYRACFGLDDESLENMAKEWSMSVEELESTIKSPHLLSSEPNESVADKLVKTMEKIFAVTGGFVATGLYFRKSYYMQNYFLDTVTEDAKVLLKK

[1] = molecular target: the molecule itself; experiment: SEC-MALS; GDP-bound protein (endogenous E. coli GDP kept); Superdex 200 HR 10/30, 20 mM Tris-HCl pH 8.0, 150 mM NaCl

Molecule	turbidity at 350 nm, SEC and native PAGE of GTP-driven oligomerization (IRGB10)	stoichiometry N [1]
Nc1nc2c(ncn2[C@@H]2O[C@H](COP(=O)(O)OP(=O)(O)OP(=O)(O)O)[C@@H](O)[C@H]2O)c(=O)[nH]1 [GTP]	The results of these turbidity assays indicated that GTP hydrolysis caused the oligomerization of IRGB10.	
Immunity-related GTPase B10 (IRGB10) (enzyme, mouse, IRGB10, immunity-related GTPase B10, member of the mouse IRG (p47 GTPase) family; the crystal model runs from residue 16 to residue 406 and is followed by LEH from the plasmid; nucleotide-free after a 1.5 M NaCl wash on the resin; GppNHp, GTP or GDP added afterwards; also called wildtype IRGB10; nucleotide-free IRGB10; source: E. coli BL21 (DE3), purified (Ni-NTA, SEC)) MGQSSSKPDAKAHNMASSLTEFFKNFKMESKIISKETIDSIQSCIQEGDIQKVISIINAALTDIEKAPLNIAVTGETGAGKSTFINALRGIGHEESESAESGAVETTKDRKKYTHPKFPNVTIWDLPGVGTTNFKPEEYLKKMKFQEYDFFLIISSARFRDNEAQLAEAIKKMKKKFYFVRTKIDSDLWNEKKAKPSSYNREKILEVIRSDCVKNLQNANAASTRVFLVSSFEVAQFDFPSLESTLLEELPAHKRHIFVQCLPTITEPAIDRRRDVLKQTIWLEALKAGASATIPMMSFFNDDIEEFEKILSHYRACFGLDDESLENMAKEWSMSVEELESTIKSPHLLSSEPNESVADKLVKTMEKIFAVTGGFVATGLYFRKSYYMQNYFLDTVTEDAKVLLKK		2
